Assay results as given in patent US20200230247A1, “COMBINATION THERAPIES COMPRISING TARGETED THERAPEUTICS” (TARVEDA THERAPEUTICS, INC., priority 2017, published 2020).

Tested on: NCI-H69 (small cell lung cancer) tumors
Experiment: Antitumor efficacy in mice bearing NCI-H69 tumors
Assay type: in vivo
Conditions: Conjugate 1 12.5 mpk once per week IV, Talazoparib 0.33 mpk PO daily 4 days on/three days off, combo: Talazoparib starting 24 hrs post Conjugate 1 dose, tumor volumes measured up to 16 days after treatment
Procedure: Mice bearing NCI-H69 (small cell lung cancer) tumors were treated with the following.
1). Vehicle controls; 2). 12.5 mpk (mg per kilogram) of Conjugate 1 once per week via intravenous administration (IV); 3). 0.33 mpk Talazoparib daily for 4 days on/three days off via oral administration (PO); 4). 12.5 mpk Conjugate 1 once per week via IV, and 0.33 mpk Talazoparib daily for 4 days on/three days off starting 24 hrs post Conjugate 1 dose.
Tumor volumes were measured 3 days, 8 days, 10 days, 13 days and 16 days after treatment.

Structure (SMILES)	Tumor Growth Inhibition (TGI %)
CCc1c2c(nc3ccc(OC(=O)N4CCC(CCn5ccc6cc(-n7c(O)nnc7-c7cc(C(C)C)c(O)cc7O)ccc65)CC4)cc13)-c1cc3c(c(=O)n1C2)COC(=O)[C@]3(O)CC [Conjugate 1, (S)-4,11-diethyl-4-hydroxy-3,14-dioxo-3,4,12,14-tetrahydro-1H-pyrano[3′,4′:6,7]indolizino[1,2-b]quinolin-9-yl 4-(2-(5-(3-(2,4-dihydroxy-5-isopropylphenyl)-5-hydroxy-4H-1,2,4-triazol-4-yl)-1H-indol-1-yl)ethyl)piperidine-1-carboxylate]	50.67%
Cn1ncnc1[C@H]1c2n[nH]c(=O)c3cc(F)cc(c23)N[C@@H]1c1ccc(F)cc1 [Talazoparib, talazoparib]	15.66%
